Laboratory results taken from ChEMBL document CHEMBL3817801, “Synthesis and steroid sulfatase inhibitory activities of N-phosphorylated 3-(4-aminophenyl)-coumarin-7-O-sulfamates” (Medchemcomm, 2016).

The molecules below were run against T1, Steryl-sulfatase (Homo sapiens, UniProt P08842) (assay: Inhibition of human placental steroid sulfatase using p-nitrophenyl sulfate as substrate after 15 mins by microplate reader method).
T1 sequence (P08842 whole entry): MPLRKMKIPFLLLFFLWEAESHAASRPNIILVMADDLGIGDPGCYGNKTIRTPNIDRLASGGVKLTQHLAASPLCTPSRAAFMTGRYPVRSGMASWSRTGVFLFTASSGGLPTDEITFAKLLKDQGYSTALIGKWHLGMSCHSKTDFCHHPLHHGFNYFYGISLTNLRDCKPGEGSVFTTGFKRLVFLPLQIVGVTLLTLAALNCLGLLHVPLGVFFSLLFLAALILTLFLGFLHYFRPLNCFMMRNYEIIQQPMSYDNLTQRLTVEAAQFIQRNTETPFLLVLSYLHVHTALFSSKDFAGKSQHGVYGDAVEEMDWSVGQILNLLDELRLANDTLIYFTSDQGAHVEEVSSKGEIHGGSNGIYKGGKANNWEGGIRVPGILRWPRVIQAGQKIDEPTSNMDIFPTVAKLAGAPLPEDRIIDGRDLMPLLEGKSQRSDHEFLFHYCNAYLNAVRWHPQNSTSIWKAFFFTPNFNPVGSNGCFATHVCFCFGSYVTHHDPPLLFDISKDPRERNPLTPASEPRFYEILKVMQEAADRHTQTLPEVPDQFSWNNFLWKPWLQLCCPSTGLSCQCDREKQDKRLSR
For `Cc1cc(=O)oc2cc(OS(N)(=O)=O)ccc12`, the IC50 was 1030 nM. With `NS(=O)(=O)Oc1ccc2ccc(=O)oc2c1` the IC50 was 1380 nM. Work on `CCOP(=O)(Nc1ccc(-c2cc3ccc(OS(N)(=O)=O)cc3oc2=O)cc1)OCC` yielded an IC50 of 510 nM. In the case of `CC1(C)COP(=O)(Nc2ccc(-c3cc4ccc(OS(N)(=O)=O)cc4oc3=O)cc2)OC1`, the IC50 is reported as 450 nM. In the case of `CCCCOP(=O)(Nc1ccc(-c2cc3ccc(OS(N)(=O)=O)cc3oc2=O)cc1)OCCCC`, the IC50 is reported as 310 nM. `NS(=O)(=O)Oc1ccc2cc(-c3ccc(NP4(=O)OCCCO4)cc3)c(=O)oc2c1` showed an IC50 of 700 nM. `NS(=O)(=O)Oc1ccc2cc(-c3ccc(NP(=O)(Oc4ccccc4)Oc4ccccc4)cc3)c(=O)oc2c1` gave an IC50 of 190 nM. `NS(=O)(=O)Oc1ccc2cc(-c3ccc(NP(=O)(OCc4ccccc4)OCc4ccccc4)cc3)c(=O)oc2c1` was tested, and the IC50 was 240 nM. In the case of `CC(C)OP(=O)(Nc1ccc(-c2cc3ccc(OS(N)(=O)=O)cc3oc2=O)cc1)OC(C)C`, the IC50 is reported as 470 nM. `COP(=O)(Nc1ccc(-c2cc3ccc(OS(N)(=O)=O)cc3oc2=O)cc1)OC` showed an IC50 of 780 nM.
